Residues, ends and D or L forms follow the SMILES beside them. *: point of attachment. Cbz = O=C(OCc1ccccc1)*
What was measured:
Hsp70 protein = assay: Western blot of Hsp70 protein in MG-132-treated plants induced by prodigiosin S3; assay type: in vivo, Nicotiana benthamiana
Description: In order to further analyze the role of ubiquitination modification in the antiviral mechanism of prodigiosin S3, we used MG-132 to treat Nicotiana benthamiana in advance. After 2 h, 0.05 μg/L prodigiosin was applied on the tobacco leaf surface uniformly according to 15 L/mu. After 30 minutes, TMV and PVY viruses were inoculated. The samples of 1 d, 2 d and 3 d after virus inoculation were collected for Western Blot analysis.

26S proteasome complex = conditions: read-out: IC50 (proteasome inhibitor); cited from earlier work
TMV = assay: Induced resistance of tobacco to TMV after leaf application of prodigiosin; assay type: in vivo, Nicotiana tabacum cv. NC89; conditions: infiltration treatment
Description: (§1) The plant material used in this experiment was Nicotiana tabacum cv. NC89, reproduced by our laboratory and cultivated in a greenhouse. Experimental plant culture conditions included: illumination 16 h, temperature 25±1° C., illumination intensity 2000 lux and relative humidity 60%; and dark duration 8 h, temperature 25±1° C. and relative humidity 60%. The nutrient substrate was produced by the Wode nutrient soil processing plant in Shouguang City, Shandong Province, and no additional fertilization was needed during plant growth. The sources of TMV and PVY were preserved by the Plant Protection Research Center of the Institute of Tobacco Research of CAAC (Chinese Academy of Agricultural Sciences), and were propagated and preserved on Nicotiana tabacum cv. NC89 grown in the greenhouse. The prodigiosin S3 was isolated and purified from Serratia marcescens fermentation broth by Plant Protection Research Center of the Institute of Tobacco Research of CAAC.

[1] = Quantitative proteomics and ubiquitination omics of prodigiosin-treated tobacco leaves; assay type: in vivo, Nicotiana benthamiana; conditions: treatment group vs control group, p<0.05
Text: In order to further understand the mechanism of systemic resistance of a plant induced by prodigiosin, the prodigiosin treated Nicotiana benthamiana was used as a target material, the optimal reaction time point of prodigiosin against PVY was selected, and the quantitative proteomics and ubiquitinated nonstandard quantitative proteomics in tobacco leaves were studied by organically combining a series of advanced technologies such as non-standard quantitative technology, high performance liquid chromatography (HPLC) fractionation technology, ubiquitinated peptide enrichment technology and quantitative proteomics technology based on mass spectrometry.
Extraction of protein. The leaf sample was taken from −80° C., put in a mortar precooled with liquid nitrogen, fed with liquid nitrogen, and fully ground to powder; 4 times the volume of powdered lysis buffer (8 M urea, 1% TritonX-100, 10 mM DTT, 1% protease inhibitor and 50 μM PR-619) was added for ultrasonic lysis; followed by 10 min of centrifugation (4° C., 20000 g), the supernatant was carefully aspirated off, and trichloroacetic acid was added to a final concentration of 20%; the mixture was left at 4° C. for 2 h; and centrifuged (4° C., 20000 g) for 3 min. The supernatant was discharged, and the precipitate was washed with precooled acetone for three times; the precipitate was re-dissolved (8 M urea) and the protein concentration was determined.
Proteolysis. DTT was added to the protein solution to a final concentration of 5 mM and was reduced at 56° C. for 30 min. Iodoacetamide was then added and incubated for 15 min at room temperature away from light. Pancreatin was added based on a mass ratio of pancreatin:protein=1:50 and enzymolysis was performed at 37° C. overnight. Pancreatin was added again based on a mass ratio of pancreatin:protein=1:100 and enzymolysis was continued for 4 h.
HPLC Fractionation. The enzymatic solution was fractionated by high pH reverse phase HPLC on an Agilent 300 Extend C18 (5 μm particle size, 4.6 mm internal diameter, 250 mm length) column. The operation was as follows: a peptide fragment grading gradient was 8%-32% acetonitrile, the pH was 9; 60 components were separated in 60 min, then the components were combined into 4 components, and the combined components were subjected to lyophilization for subsequent operations.
HPLC-MS Analysis. The lyophilized fractions were analyzed by HPLC-MS: dissolved by a mobile phase A phase (0.1% (v/v) formic acid in water) and separated using EASY-nLC 1000 ultra high performance liquid phase system. […]
Database Search. […] Differential genes and proteins were analyzed by GO enrichment, and KEGG pathway.

PVY = assay: Induced resistance of tobacco to PVY after leaf application of prodigiosin; assay type: in vivo, Nicotiana tabacum cv. NC89; conditions: infiltration treatment
Description: as §1

[2] = 2031 sites on 1110 proteins identified

Row | SMILES | content of Hsp70 protein (Hsp70 protein; MG-132-treated samples induced by prodigiosin S3) | accumulation of Hsp70 protein (Hsp70 protein; MG-132 in advance, after 2 h 0.05 μg/L prodigiosin at 15 L/mu, inoculated after 30 minutes, PVY virus 1 d, vs control group) | IC50 (26S proteasome complex) | induced resistance to TMV (TMV) | number of ubiquitination sites with down-regulated modification level [1, 2] | number of ubiquitination sites with up-regulated modification level [1, 2] | number of proteins with down-regulated expression ([1]; 6122 proteins identified) | number of proteins with up-regulated expression ([1]; 6122 proteins identified) | induced resistance to PVY (PVY)
1 | CC(C)C[C@@H](C=O)NC(=O)[C@H](CC(C)C)NC(=O)[C@H](CC(C)C)NC(=O)OCc1ccccc1 [MG-132] (Cbz-Leu-Leu-Leu-aldehyde) | increases significantly | significantly increased | 100 nM | – | – | – | – | – | –
2 | CCCCCC1=C/C(=C/c2[nH]c(-c3ccc[nH]3)cc2OC)N=C1C [prodigiosin] | – | – | – | 100% | 21 | 33 | 186 | 223 | 100%
